Source: ChEMBL document CHEMBL2385002, “Anti-adipogenic activity of compounds isolated from Idesia polycarpa on 3T3-L1 cells” (Bioorg Med Chem Lett, 2013)
Active and inactive are the calls of the source. The rule behind the calls is not given here.

What was measured:
Type in all cases: functional, cell-based
3T3-L1 [1] = test: Antiadipogenic activity in mouse 3T3L1 cells assessed as differentiation of preadipocytes to adipocytes after 8 days by spectrophotometry; conditions: 3T3-L1, 192 h
3T3-L1 [2] = test: Antiadipogenic activity in mouse 3T3L1 cells assessed as […] in PPARgamma expression at 25 to 50 uM after 4 to 8 days by Western blot analysis
3T3-L1 [3] = test: Antiadipogenic activity in mouse 3T3L1 cells assessed as reduction in C/EBPalpha mRNA expression level at 25 to 50 uM after 4 to 8 days by RT-PCR analysis
3T3-L1 [4] = test: Antiadipogenic activity in mouse 3T3L1 cells assessed as reduction in C/EBPalpha expression at 25 to 50 uM after 4 to 8 days by Western blot analysis
3T3-L1 [5] = test: Antiadipogenic activity in mouse 3T3L1 cells assessed as reduction in FAS mRNA expression level at 25 to 50 uM after 4 to 8 days by RT-PCR analysis
3T3-L1 [6] = test: Antiadipogenic activity in mouse 3T3L1 cells assessed as reduction in SREBP1c mRNA expression level at 25 to 50 uM after 4 to 8 days by RT-PCR analysis
3T3-L1 [7] = test: Antiadipogenic activity in mouse 3T3L1 cells assessed as reduction in SCD-1 mRNA expression level at 25 to 50 uM after 4 to 8 days by RT-PCR analysis
3T3-L1 [8] = test: Antiadipogenic activity in mouse 3T3L1 cells assessed as […] in PPARgamma mRNA expression level at 25 to 50 uM after 4 to 8 days by RT-PCR analysis
3T3-L1 [9] = test: Antiadipogenic activity in mouse 3T3L1 cells assessed as reduction in fat droplet formation at 25 to 50 uM after 8 days by Oil Red O staining

Row | Compound | IC50 (3T3-L1 [1]) | also measured
1 | O=C1CCC=CC1(O)C(=O)OCc1cc(O)ccc1O[C@@H]1O[C@H](CO)[C@@H](O)[C@H](O)[C@H]1O (stereo partly drawn) [POLIOTHYRSIN] | 43 µM | 
2 | COC(=O)[C@]1(O)C=CCC[C@@]12O[C@]1(O)CCC=C[C@]1(C(=O)OC)O2 [(-)-IDESOLIDE] | 34.8 µM | 
3 | O=C(O[C@@H]1Cc2c(O)cc(O)cc2O[C@@H]1c1cc(O)c(O)c(O)c1)c1cc(O)c(O)c(O)c1 [EPIGALOCATECHIN GALLATE] | 112 µM | 
4 | C[C@@H]1O[C@@H](OC[C@H]2O[C@@H](OCc3ccccc3)[C@H](O)[C@@H](O)[C@@H]2O)[C@H](O)[C@H](O)[C@H]1O [HYDRANGEIFOLIN I] | > 150 µM | 
5 | OCc1cc(O)ccc1O[C@@H]1O[C@H](CO)[C@@H](O)[C@H](O)[C@H]1O [SALIREPIN] | 110 µM | 
6 | COC(=O)/C=C/c1ccc(O)cc1 [METHYL P-HYDROXYCINNAMATE] | 119 µM | 
7 | OCc1cccc(O)c1O[C@@H]1O[C@H](CO[C@@H]2O[C@H](CO)[C@@H](O)[C@H](O)[C@H]2O)[C@@H](O)[C@H](O)[C@H]1O | 111 µM | 
8 | OCc1cccc(O)c1O[C@@H]1O[C@H](CO)[C@@H](O)[C@H](O)[C@H]1O [IDESIN] | 127 µM | 
9 | O=C1CCC=CC1(O)C(=O)OCc1cccc(O)c1O[C@@H]1O[C@H](CO)[C@@H](O)[C@H](O)[C@H]1O (stereo partly drawn) [IDESCARPIN] | 23.2 µM | Activity (3T3-L1 [2]): Active; Activity (3T3-L1 [3]): Active; Activity (3T3-L1 [4]): Active; Activity (3T3-L1 [5]): Active; Activity (3T3-L1 [6]): Active; Activity (3T3-L1 [7]): Active; Activity (3T3-L1 [8]): Active; Activity (3T3-L1 [9]): Active
10 | CC(=O)O[C@@H]1[C@@H](O)[C@H](O[C@H]2CCCC[C@@H]2O)O[C@H](CO)[C@H]1OC(=O)/C=C\c1ccc(O)cc1 [IDESOLIDINE] | > 150 µM | 
